Data on 7 molecules can be found in patent publication EP4692094A1 (Beijing Konruns Pharmaceutical Co., Ltd., priority 2023, dated 2024).

For data set [1], the target named is T1, KAT6A (Homo sapiens, UniProt Q92794).
T1 construct: purchased active motife (Active Motif) 81223
Description: Enzymatic activity assay for KAT6A acetyltransferase (TR-FRET, acetylation of histone substrate H3). The class given is biochemical. The procedure: The acetylation effect of KAT6A on histone substrate H3 was determined using the TR-FRET (time-resolved fluorescence resonance energy transfer) method.
• 1) The compounds prepared in the examples of the present disclosure were each dissolved in dimethylsulfoxide to give solutions at a concentration of 10 mmol/L, and then the solutions were diluted to 0.2 mmol/L, i.e., 1 µL of the compound was added to 49 µL of DMSO, and 3-fold dilution was performed to give 10 concentrations. • 2) 50 nL of the test compounds (example compounds) were transferred to 384 reaction plates using Echo, two replicates for each compound, and the plates were centrifuged at a rotation speed of 1000 rpm for 1 min, the final concentration of dimethylsulfoxide (DMSO) being 0.5%. • 3) 2.5 µL of the reaction mixtures obtained in step 2 was added to the 384 reaction plates in step 2), and the plates were centrifuged at 1000 rpm for 1 min and incubated at 25 °C for 10 min. • 4) 2.5 µL of Bio-H3&AcCOA (acetyl-CoA) reaction solution was added to the 384 reaction plates in step 3), and the plates were centrifuged at a rotation speed of 1000 rpm for 1 min and incubated at 25 °C for 90 min. • 5) 5 µL of Eu-Ab& Ulight-SA detection solution was added to the 384 reaction plates in step 4), and the plates were centrifuged at 1000 rpm for 1 min and incubated at 25 °C for 60 min. • 6) The HTRF […] signals were read using a BMG high-throughput drug-screening multi-mode microplate reader.
The acetylation level of the histone H3 was analyzed by the GraphPad Prism 8 software. The reading of the negative control (0.5% DMSO wells) was set as 0% inhibition rate, and the reading of the positive control (wells with the highest concentration of the control compound) was set as 100% inhibition rate. The inhibition rates were calculated, and then IC50 values (half maximal inhibitory concentration) of test compounds were obtained by using a software nonlinear fitting formula; [formula]
Datapositive control: mean of positive control well values; Datanegative control: mean of negative control well values. Table 3. Enzymatic inhibitory activity of example compounds
In general terms: In TR-FRET formats the signal depends on donor and acceptor labels being close together.

Data set [2] can be described thus: In-vivo pharmacokinetic study in rats. Conditions: female, SD, rat, plasma, po, 5 mg/kg, intragastric administration; for AUC(0-t): read-out: AUC0-24h. Further details: species or system SD female rats. The procedure:
1.1 Instrument: high-performance liquid chromatograph: SHIMADZU LC-30AD; mass spectrum: AB SCIEX mass spectrometer Triple Quad 5500; all measured data were calculated and processed using Microsoft Excel, and relevant pharmacokinetic parameters were calculated using WinNonlin software. The main obtained kinetic parameters are Tmax, T1/2, Cmax, AUC0-24 h, and AUCinf. […] Sample injection amount: 1 µL.
1.2 Animals: three SD female rats were used. The body weight range was 180-300 g. After purchase, the rats were bred in the experimental animal center for two days for later use. The rats were fasted 12 h before administration and 4 h after administration, and given ad libitum access to water during the assay. Blood samples were taken at predetermined time points after intragastric administration.
1.3 Vehicle: 0.5% HPMC (hydroxypropyl methylcellulose) + 0.4% Tween80 + 99.1% water. Preparation of intragastric administration solution: The compound was precisely weighed, the vehicle was added, and then the drug was completely dissolved by ultrasonication at room temperature for 5 min and prepared into a 0.5 mg/mL solution. After the intragastric administration, blood samples were taken at 0.083 h, 0.25 h, 0.5 h, 1.0 h, 2.0 h, 4.0 h, 7.0 h, and 24 h. The blood collection mode is as follows: 0.2 mL of the jugular vein blood was collected, EDTA-K2 was used as an anticoagulation agent, the collected blood sample was transferred into a microcentrifuge tube containing the anticoagulation agent, and the tube was centrifuged at 4 °C and 4000 g for 5 min to separate the plasma. All plasma samples collected were stored at -75±15 °C until analysis.
The compound was precisely weighed and prepared into a standard curve working solution and a quality control working solution at different concentrations. The blank plasma was added and prepared into a plasma standard curve and a quality control sample. LC/MS/MS analysis was performed after pretreatment using a protein precipitation method, and then the concentration of the compounds described above in the plasma was measured. All measured data were collected and processed by the relevant software, and pharmacokinetic parameters were calculated using Winnonlin software. Table 9. Pharmacokinetic parameters of some compounds in the examples in rats

The subject of data set [3] is human breast cancer cell line ZR-75-1. Description: Assay for cell growth inhibitory activity (3D hydrogel culture, CCK-8). The class given is cell-based. Conditions: 96 h; for viability at 0.0001 µM: ZR-75-1, 0.1 nM, read-out: Cell survival rate at example drug concentration 0.1 nM; for viability at 0.001 µM: ZR-75-1, 1 nM, read-out: Cell survival rate at example drug concentration 1 nM; for viability at 0.01 µM: ZR-75-1, 10 nM, read-out: Cell survival rate at example drug concentration 10 nM; for viability at 0.1 µM: ZR-75-1, 100 nM, read-out: Cell survival rate at example drug concentration 100 nM; for viability at 1 µM: ZR-75-1, 1000 nM, read-out: Cell survival rate at example drug concentration 1000 nM. The procedure:
The human breast cancer cell line ZR-75-1 (1 × 10^^6 cells per cell culture dish with 100-mm diameter) was cultured in a 1640 culture medium, and 1% double antibiotics (streptomycin and penicillin), 10% fetal bovine serum (FBS), and 1% glutamine (Glumax) were added simultaneously. The cell culture dish was placed at 37 °C with 5% CO2 for 2 days for culture until the cell confluence reached 80%-90% to give cells in the logarithmic growth phase.
• 1) The example compounds were each dissolved in dimethylsulfoxide to give solutions at a concentration of 10 mmol/L, and the solutions were diluted to 250 µmol/L in 10-fold gradient for 5 concentrations, i.e., 0.2 nmol/L, 2 nmol/L, 20 nmol/L, 200 nmol/L, and 2000 nmol/L. • 2) Blank control wells were prepared by adding 0.1% dimethylsulfoxide to the cultured cells, and were used as high-reading control wells; cell-free 3D hydrogel was used as background wells. • 3) The cultured cells were separately added to the compounds in the examples at 0.2 nmol/L, 2 nmol/L, 20 nmol/L, 200 nmol/L, and 2000 nmol/L as test wells, with the same volumes as the original culture solutions.
• 1) The cells were collected, resuspended in a PBS balanced salt solution, and counted; and the cells were mixed with the 3D hydrogel stock solution and prepared into hydrogel cell suspensions with proper density. • 2) The 3D hydrogel cell suspension (5 × 10^^4 cells) was added to each well in 96-well cell culture plates with low surface adsorption, and the plates were incubated at 37 °C with 5% CO2 for 20 min. • 3) The complete culture medium containing the compound prepared in 1.2 with an equal volume to that of the cell suspension in step 2 was added to the 96-well cell culture plate. • 4) The cells were cultured at 37 °C in a 5% CO2 incubator for 96 h.
• 1) The complete culture medium in the upper layer above the hydrogel was pipetted from each well of the 96-well cell culture plate with a vacuum pump or a manual pipette with careful processing to avoid breaking the hydrogel lower layer. • 2) The complete culture medium containing the CCK-8 substrate with an equal volume to that of the original hydrogel was added to each well. • 3) The plate was cultured at 37 °C with 5% CO2 for 1 h. • 4) The 96-well cell culture plate was placed in a microplate reader, and the values of A450 and A630 were separately detected.
Data analysis: The relative inhibitory level was analyzed by using Excel software, and the survival rates of cells under different compound culture conditions were obtained; [formula]
High-reading control well: cells + dimethylsulfoxide; background well: cell-free hydrogel. Table 7. Cell proliferation inhibitory activity of some of example compounds

In general, IC50 refers to the concentration that inhibits the measured activity by half. A lower IC50 goes with greater potency in that assay. What is called half-life is how long it takes for the measured level to halve. A higher half-life goes with slow loss. What is called AUC(0-inf) is total exposure, with the tail of the curve extrapolated. The Cmax is the highest concentration seen after dosing. As a reminder, the Tmax is the time from dosing to the highest level.

Where only a bound is given, the exact number is not on record here.

T1 sequence (Q92794 whole entry): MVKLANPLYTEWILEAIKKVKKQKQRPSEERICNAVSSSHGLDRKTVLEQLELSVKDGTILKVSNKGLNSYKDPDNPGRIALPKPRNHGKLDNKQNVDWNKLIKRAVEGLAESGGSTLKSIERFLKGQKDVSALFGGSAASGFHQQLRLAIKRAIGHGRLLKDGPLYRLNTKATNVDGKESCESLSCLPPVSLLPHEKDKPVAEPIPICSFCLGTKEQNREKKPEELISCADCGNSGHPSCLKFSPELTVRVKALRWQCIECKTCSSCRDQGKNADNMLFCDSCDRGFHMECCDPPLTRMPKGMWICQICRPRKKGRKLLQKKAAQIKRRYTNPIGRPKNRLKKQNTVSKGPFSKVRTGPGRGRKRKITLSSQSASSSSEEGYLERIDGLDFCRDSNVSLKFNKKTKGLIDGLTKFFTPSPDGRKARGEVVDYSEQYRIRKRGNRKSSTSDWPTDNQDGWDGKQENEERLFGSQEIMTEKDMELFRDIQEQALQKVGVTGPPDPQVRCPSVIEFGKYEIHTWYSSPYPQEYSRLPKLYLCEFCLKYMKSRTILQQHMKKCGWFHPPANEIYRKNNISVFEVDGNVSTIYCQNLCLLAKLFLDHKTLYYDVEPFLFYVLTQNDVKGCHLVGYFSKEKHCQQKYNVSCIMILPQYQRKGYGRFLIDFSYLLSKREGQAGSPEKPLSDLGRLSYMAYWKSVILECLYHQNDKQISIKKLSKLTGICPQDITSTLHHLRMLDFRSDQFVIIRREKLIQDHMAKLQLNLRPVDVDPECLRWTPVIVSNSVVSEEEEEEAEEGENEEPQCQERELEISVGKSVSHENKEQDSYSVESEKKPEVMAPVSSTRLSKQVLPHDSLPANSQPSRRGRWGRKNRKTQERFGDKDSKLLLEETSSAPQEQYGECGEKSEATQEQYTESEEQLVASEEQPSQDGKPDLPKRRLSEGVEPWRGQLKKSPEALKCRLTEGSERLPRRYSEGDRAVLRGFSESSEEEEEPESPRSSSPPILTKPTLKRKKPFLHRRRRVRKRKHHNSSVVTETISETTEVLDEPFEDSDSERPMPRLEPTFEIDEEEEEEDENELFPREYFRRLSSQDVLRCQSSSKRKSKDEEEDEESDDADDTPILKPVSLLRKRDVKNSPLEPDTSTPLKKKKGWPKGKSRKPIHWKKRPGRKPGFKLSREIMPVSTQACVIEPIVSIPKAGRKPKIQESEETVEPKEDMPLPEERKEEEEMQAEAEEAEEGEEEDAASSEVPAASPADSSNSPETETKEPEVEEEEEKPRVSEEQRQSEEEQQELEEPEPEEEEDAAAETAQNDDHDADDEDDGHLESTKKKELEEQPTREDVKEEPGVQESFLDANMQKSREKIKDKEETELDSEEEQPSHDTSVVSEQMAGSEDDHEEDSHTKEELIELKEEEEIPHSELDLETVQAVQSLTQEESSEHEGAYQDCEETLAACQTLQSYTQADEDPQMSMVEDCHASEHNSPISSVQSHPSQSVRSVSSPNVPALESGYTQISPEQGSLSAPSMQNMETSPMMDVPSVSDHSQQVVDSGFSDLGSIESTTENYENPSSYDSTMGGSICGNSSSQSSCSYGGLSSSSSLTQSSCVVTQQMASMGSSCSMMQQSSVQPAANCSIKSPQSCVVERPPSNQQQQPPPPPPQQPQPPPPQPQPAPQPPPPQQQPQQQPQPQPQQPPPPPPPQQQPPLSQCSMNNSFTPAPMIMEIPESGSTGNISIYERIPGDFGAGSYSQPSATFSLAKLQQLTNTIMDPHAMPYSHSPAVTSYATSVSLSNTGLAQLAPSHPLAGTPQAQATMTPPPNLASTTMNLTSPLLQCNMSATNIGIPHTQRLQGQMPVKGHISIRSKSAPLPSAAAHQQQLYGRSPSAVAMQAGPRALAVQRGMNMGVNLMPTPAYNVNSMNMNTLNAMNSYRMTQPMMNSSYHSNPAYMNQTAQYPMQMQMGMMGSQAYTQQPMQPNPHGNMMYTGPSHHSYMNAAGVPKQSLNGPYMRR

Turning to `COc1nc(Cn2cccn2)cc2onc(NS(=O)(=O)c3cccc4c3ccn4C)c12` [Example 6, N-(6-((1H-Pyrazol-1-yl)methyl)-4-methoxyisoxazolo[4,5-c]pyridin-3-yl)-1-methyl-1H-indole-4-sulfonamide], the IC50 in data set [1] was determined as 3.11 nM. In addition, in data set [2], the half-life is 24.6 h, the AUC(0-inf) is 1300 µg·h/mL, the Cmax turned out to be 31600 ng/mL and the Tmax came out at 0.33 h. For the same molecule, the AUC(0-t) in data set [2] came out at 502 µg·h/mL. Further, in data set [3], the viability at 0.0001 µM is 74%, the viability at 0.001 µM was 66%, the viability at 0.01 µM turned out to be 45% and the viability at 0.1 µM is 38%. Besides, in data set [3], the viability at 1 µM stood at 25%.
In data set [1], `COc1nc(Cn2cccn2)cc2onc(NS(=O)(=O)c3cccc4c3OCC4)c12` [Example 1, N-(6-((1H-pyrazol-1-yl)methyl)-4-methoxyisoxazolo[4,5-c]pyridin-3-yl)-2,3-dihydrobenzofuran-7-sulfonamide] had an IC50 of 7.33 nM. In data set [3], the viability at 0.0001 µM amounted to 95%, the viability at 0.001 µM is 80%, the viability at 0.01 µM was 54% and the viability at 0.1 µM was found to be 40%. For the same molecule, in data set [3], the viability at 1 µM turned out to be 30%.
`COc1cc2c(c(OC)c1S(=O)(=O)Nc1noc3cc(Cn4cccn4)nc(OC)c13)CCC2` [Example 62, N-(6-((1H-Pyrazol-1-yl)methyl)-4-methoxyisoxazolo[4,5-c]pyridin-3-yl)-4,6-dimethoxy-2,3-dihydro-1H-indene-5-sulfonamide] showed an IC50 in data set [1] of 0.84 nM. In data set [2], the half-life was no more than 10 h, the AUC(0-inf) came to 450 µg·h/mL, the Cmax was found to be 25600 ng/mL and the Tmax is 1.17 h. For the same molecule, the AUC(0-t) in data set [2] amounted to 356 µg·h/mL.
Regarding `COc1ccc2c(c1S(=O)(=O)Nc1noc3cc(Cn4cccn4)nc(OC)c13)CCCC2` [Example 3], in data set [1], the IC50 turned out to be 1.76 nM. In addition, in data set [3], the viability at 0.0001 µM was 71%, the viability at 0.001 µM stood at 55%, the viability at 0.01 µM came to 43% and the viability at 0.1 µM was 40%. In addition, the viability at 1 µM in data set [3] came to 29%.
Turning to `COc1ccc2cccnc2c1S(=O)(=O)Nc1noc2cc(Cn3cccn3)nc(OC)c12` [Example 11, N-(6-((1H-Pyrazol-1-yl)methyl)-4-methoxyisoxazolo[4,5-c]pyridin-3-yl)-7-methoxyquinoline-8-sulfonamide], in data set [1], the half-inhibitory concentration (IC50) stood at 0.77 nM. Moreover, in data set [2], the AUC(0-inf) amounted to 32 µg·h/mL, the highest concentration (Cmax) worked out at 3310 ng/mL, the Tmax is 0.83 h and the AUC(0-t) is 32 µg·h/mL.
`COc1nc(Cn2nccn2)cc2onc(NS(=O)(=O)c3cccc4c3OCC4)c12` [Example 12, N-(6-((2H-1,2,3-Triazol-2-yl)methyl)-4-methoxyisoxazolo[4,5-c]pyridin-3-yl)-2,3-dihydrobenzofuran-7-sulfonamide]: in data set [1], the IC50 was 66.7 nM. This counts as double-digit nanomolar.
The same measure, in the same setting: the figure for `COc1nc(Cn2cccn2)cc2onc(NS(=O)(=O)c3ccc4c(c3)OC(F)(F)O4)c12` [Example 89, N-(6-((1H-Pyrazol-1-yl)methyl)-4-methoxyisoxazolo[4,5-c]pyridin-3-yl)-2,2-difluoro-1,3-benzodioxole-5-sulfonamide] is 16.8 nM.
